Source: ChEMBL document CHEMBL1201862, “PubChem BioAssay data set” (2004)
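1) Cells in 96-well plates. 2) Compound, 48 h, 5 concentrations. 3) Linear interpolation between surrounding doses. 4) Unreached endpoint = highest concentration. GI50 marks 50% less growth.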 Active and inactive are the calls of the source. Rule as the data show it: active = GI50 up to about 1.1 µM and inactive = higher.

Assays:
Assay in all cases: NCI tumour cell line growth inhibition, 48 h
CCRF-CEM = tested on: CCRF-CEM
NCI-H522 = tested on: NCI-H522
SW-620 = tested on: SW-620
HT-29 = tested on: HT-29
EKVX = tested on: EKVX
SK-MEL-28 = tested on: SK-MEL-28
SN12C = tested on: SN12C
SF-268 = tested on: SF-268
SNB-75 = tested on: SNB-75
PC-3 = tested on: PC-3
786-0 = tested on: 786-0
T47D = tested on: T47D
MDA-MB-435 = tested on: MDA-MB-435
OVCAR-5 = tested on: OVCAR-5
RPMI-8226 = tested on: RPMI-8226
HOP-92 = tested on: HOP-92
IGROV-1 = tested on: IGROV-1
OVCAR-4 = tested on: OVCAR-4
CAKI-1 = tested on: CAKI-1
OVCAR-8 = tested on: OVCAR-8
NCI-H460 = tested on: NCI-H460
NCI-H226 = tested on: NCI-H226
BT-549 = tested on: BT-549
ACHN = tested on: ACHN
Hs-578T = tested on: Hs-578T
SF-295 = tested on: SF-295
SR = tested on: SR
SK-MEL-2 = tested on: SK-MEL-2
DU-145 = tested on: DU-145
MDA-N = tested on: MDA-N
HOP-62 = tested on: HOP-62
NCI-H23 = tested on: NCI-H23
KM12 = tested on: KM12
K562 = tested on: K562
HCT-15 = tested on: HCT-15
U-251 = tested on: U-251
M14 = tested on: M14
MDA-MB-231 = tested on: MDA-MB-231
SK-OV-3 = tested on: SK-OV-3
UACC-62 = tested on: UACC-62
HCT-116 = tested on: HCT-116
NCI/ADR-RES = tested on: NCI/ADR-RES
Malme-3M = tested on: Malme-3M
UACC-257 = tested on: UACC-257
COLO 205 = tested on: COLO 205
UO-31 = tested on: UO-31
SNB-19 = tested on: SNB-19
A549 = tested on: A549
HCC 2998 = tested on: HCC 2998
RXF 393 = tested on: RXF 393
MOLT-4 = tested on: MOLT-4
LOX IMVI = tested on: LOX IMVI
OVCAR-3 = tested on: OVCAR-3
SF-539 = tested on: SF-539
MCF7 = tested on: MCF7
TK-10 = tested on: TK-10
A498 = tested on: A498
HL-60 = tested on: HL-60
SK-MEL-5 = tested on: SK-MEL-5

Measured: GI50

Cc1ccc(Nc2c(C#N)[n+]([O-])c3cc(Cl)ccc3[n+]2[O-])cc1
5.15 µM: HCT-15
inactive: CCRF-CEM 3.23 µM | NCI-H522 11.4 µM | SW-620 37.5 µM | HT-29 11.2 µM | EKVX > 81.3 µM | SK-MEL-28 > 100 µM | SN12C > 33.2 µM | SF-268 28.4 µM | SNB-75 39.5 µM | PC-3 9.66 µM | 786-0 4.8 µM | T47D > 100 µM | MDA-MB-435 44.7 µM | OVCAR-5 > 100 µM | RPMI-8226 4.61 µM | HOP-92 > 100 µM | IGROV-1 15.5 µM | OVCAR-4 24.1 µM | CAKI-1 42 µM | OVCAR-8 11.7 µM | NCI-H460 9.31 µM | NCI-H226 28.2 µM | BT-549 9.46 µM | ACHN 11.2 µM | Hs-578T > 100 µM | SF-295 13.6 µM | SR 7.98 µM | SK-MEL-2 > 100 µM | DU-145 > 100 µM | MDA-N > 53.8 µM | HOP-62 43.1 µM | NCI-H23 40.5 µM | KM12 12.6 µM | K562 11 µM | U-251 29.3 µM | M14 30.3 µM | MDA-MB-231 > 100 µM | SK-OV-3 61.7 µM | UACC-62 20.7 µM | HCT-116 8.79 µM | NCI/ADR-RES 9.95 µM | Malme-3M 79.3 µM | UACC-257 > 76.7 µM | COLO 205 18.4 µM | UO-31 82.4 µM | SNB-19 > 100 µM | A549 23.8 µM | HCC 2998 21.8 µM | RXF 393 > 22.1 µM | MOLT-4 4.8 µM | LOX IMVI 6.85 µM | OVCAR-3 4.13 µM | SF-539 26.6 µM | MCF7 15.3 µM | TK-10 29 µM | A498 > 100 µM | HL-60 3.44 µM

C[C@@H]1CC[C@@]2(C)C(C(=O)O)=CCCC2[C@@]1(C)CC(=O)c1ccoc1 (stereo partly specified)
inactive: CCRF-CEM > 25 µM | NCI-H522 > 25 µM | SW-620 > 25 µM | HT-29 > 25 µM | EKVX > 25 µM | SK-MEL-28 > 25 µM | SN12C > 25 µM | SF-268 > 25 µM | SNB-75 > 25 µM | PC-3 > 25 µM | 786-0 > 25 µM | T47D > 25 µM | MDA-MB-435 > 25 µM | OVCAR-5 > 25 µM | RPMI-8226 > 25 µM | HOP-92 > 25 µM | IGROV-1 > 25 µM | OVCAR-4 > 25 µM | CAKI-1 > 25 µM | OVCAR-8 > 25 µM | NCI-H460 > 25 µM | NCI-H226 > 25 µM | BT-549 > 25 µM | ACHN > 25 µM | Hs-578T > 25 µM | SF-295 > 25 µM | SR > 25 µM | SK-MEL-5 > 25 µM | SK-MEL-2 > 25 µM | DU-145 > 25 µM | MDA-N > 25 µM | NCI-H23 > 25 µM | KM12 > 25 µM | U-251 > 25 µM | M14 > 25 µM | MDA-MB-231 > 25 µM | SK-OV-3 > 25 µM | UACC-62 > 25 µM | HCT-116 > 25 µM | NCI/ADR-RES > 25 µM | UACC-257 > 25 µM | COLO 205 > 25 µM | UO-31 > 25 µM | SNB-19 > 25 µM | A549 > 25 µM | RXF 393 > 25 µM | MOLT-4 > 25 µM | LOX IMVI > 25 µM | OVCAR-3 > 25 µM | SF-539 > 25 µM | MCF7 > 25 µM | TK-10 > 25 µM | A498 > 25 µM | HL-60 > 25 µM
> 25 µM: HCT-15

CN1CC2=C(OC(N)=C(C#N)C2c2cccs2)/C(=C/c2cccs2)C1 (stereo unspecified)
active: T47D 0.202 µM | MCF7 0.223 µM
15.5 µM: HCT-15
inactive: CCRF-CEM 5.52 µM | NCI-H522 7.94 µM | SW-620 42.8 µM | HT-29 12.7 µM | EKVX 6.01 µM | SK-MEL-28 > 57.9 µM | SN12C 34.8 µM | SF-268 13.5 µM | PC-3 5.31 µM | 786-0 31.3 µM | MDA-MB-435 6.1 µM | OVCAR-5 > 84.9 µM | RPMI-8226 4.45 µM | HOP-92 2.09 µM | IGROV-1 15.5 µM | OVCAR-4 5.52 µM | CAKI-1 38.8 µM | OVCAR-8 6.44 µM | NCI-H460 17.7 µM | NCI-H226 > 74.1 µM | BT-549 5.62 µM | ACHN 2.43 µM | Hs-578T > 100 µM | SF-295 11.6 µM | SR 4.17 µM | SK-MEL-5 3.41 µM | SK-MEL-2 > 35.1 µM | DU-145 23.4 µM | MDA-N 5.64 µM | HOP-62 19.3 µM | NCI-H23 7.18 µM | KM12 9.12 µM | K562 10.3 µM | U-251 8.59 µM | M14 13.1 µM | MDA-MB-231 > 49 µM | SK-OV-3 55.7 µM | UACC-62 19.7 µM | HCT-116 8.43 µM | NCI/ADR-RES 3.41 µM | Malme-3M 8.65 µM | UACC-257 9.53 µM | COLO 205 9.08 µM | UO-31 34 µM | SNB-19 > 59.3 µM | A549 8.3 µM | HCC 2998 25.6 µM | RXF 393 10.1 µM | MOLT-4 2.43 µM | LOX IMVI 13.9 µM | OVCAR-3 15.8 µM | SF-539 48.8 µM | TK-10 > 51.2 µM | A498 21.8 µM | HL-60 1.81 µM
